From patent US20260069619A1, “Treatment of Dry Eye Disease Using Mitochondrially Targeted Antioxidants” (MITOTECH S.A., priority 2022, published 2026)

Columns and labels:
[1] = system: subjects with dry eye syndrome; experiment: VISTA-2 clinical study: best corrected visual acuity (BCVA-logMAR); assay type: in vivo, human; details: blurred vision [OSDI 4]≥1, poor vision [OSDI 5]≥1 at baseline
Description: Visual acuity can be measured by a health care provider to provide a sign of DED. The visual acuity can be a best corrected visual acuity (BCVA) of an eye or of both eyes. A logarithm of the minimum angle of resolution (LogMAR) chart such, for example, a Bailey-Lovie chart or an Early Treatment Diabetic Retinopathy Study chart can be utilized to measure BCVA. The number of letters read correctly by a subject can be converted to logMAR scores. The VISTA-2 (NCT04206020) clinical study reported results of a dose of 1.55 μg/mL SkQ1 compared to placebo (vehicle). VISTA-2 reported a measured change of ocular discomfort scale. The scale ranged from 0 to 4 with 0=no discomfort and 4=constant discomfort from baseline to Day 57. VISTA-2 reported a measured change of level of conjunctival fluorescein staining (sum of temporal and nasal regions). The scale in each region ranged from 0 to 4, with 0=no staining and 4=confluent staining from baseline to day 57. Study subjects were carefully monitored for any adverse events. [table] In VISTA-2, change from baseline in BCVA using a logMAR (BCVA-logMAR) at Visit 3 was evaluated in the ITT subgroup including subjects with Schirmer's test score ≥7 mm, blurred vision [OSDI 4]≥1, and poor vision [OSDI 5]≥1 at baseline. Significant improvement was shown in VISTA-2 with pANCOVA=0.0143. […]

[2] = system: subjects with dry eye syndrome; experiment: VISTA-1 clinical study (NCT03764735): central corneal fluorescein staining; assay type: in vivo, human; details: for Change from baseline in central corneal fluorescein staining, ANCOVA model LS Mean (SE) / Difference in Means, Active - Placebo (two-sample t-test), central corneal fluorescein staining change: 57 days, mITT; for Change from baseline in central corneal fluorescein staining, Mean (SD): after 57 days, mITT population, scale 0-4; for Change from baseline in central fluorescein staining, LS Mean: ITT subgroup, observed data only
Description: The VISTA-1 clinical study (NCT03764735) evaluated ophthalmic solutions with different concentrations of SkQ1 for various aspects of safety and effectiveness compared to placebo (vehicle) for treatment of various signs and symptoms of DED. The vehicle was an artificial tear treatment used as a control.
The VISTA-1 study reported change of level of corneal fluorescein staining from baseline to day 57. The level of corneal fluorescein scale ranged from 0 to 4, where level 0=none and level 4=severe. VISTA-1 reported a change in symptoms such as subject-reported grittiness from baseline to day 57, where the scale ranged from 0 to 5 for each symptom, where 0=none and 5=worst. Study subjects were carefully monitored for any adverse events.
(§1) In addition to the reported data, observed data collected during the VISTA-1 and VISTA-2 clinical studies were analyzed in an ITT subgroup with an unanesthetized Schirmer's Test ≥7 mm at baseline (initial evaluation).
(§2) In both VISTA-1 and VISTA-2, post-hoc analyses were conducted on observed data for the ITT subgroup including subjects with an unanesthetized Schirmer's test score of ≥7 mm at baseline, with observed data only to evaluate change from baseline in central fluorescein staining. Table 4 summarizes the results for subjects with unanesthetized Schirmer's test score of […] at baseline. […] In VISTA-2, with increased sample size, significant improvement was confirmed in this subgroup (pANCOVA=0.0168). In Table 4, the change from baseline in central fluorescein staining for the ITT subgroup with unanesthetized Schirmer's test score of ≥7 mm at baseline is provided with observed data only.
(§3) A similar subgroup, as described above, was also analyzed in post-hoc analyses for both VISTA-1 and VISTA-2 to evaluate the proportion of subjects with clearing of corneal fluorescein staining in the central region. […] In VISTA-2, with increased sample size, significant improvement was confirmed (pLogistic regression=0.0049, pPearson chi-squared=0.0033, pFisher's exact test=0.0037). In Table 5, the proportion of study subjects with clearing of corneal fluorescein staining in the central corneal region, for the ITT Subgroup with unanesthetized Schirmer's test score of ≥7 mm at baseline is presented, with observed data only.

eye = details: cited from earlier work
[3] = system: subjects with dry eye syndrome; experiment: VISTA-2 clinical study (NCT04206020): central corneal fluorescein staining; assay type: in vivo, human; details: for Change from baseline in central fluorescein staining, LS Mean: 1.55 μg/mL SkQ1, ITT subgroup, observed data only
Description: The VISTA-2 (NCT04206020) clinical study reported results of a dose of 1.55 μg/mL SkQ1 compared to placebo (vehicle). VISTA-2 reported a measured change of ocular discomfort scale. The scale ranged from 0 to 4 with 0=no discomfort and 4=constant discomfort from baseline to Day 57. VISTA-2 reported a measured change of level of conjunctival fluorescein staining (sum of temporal and nasal regions). The scale in each region ranged from 0 to 4, with 0=no staining and 4=confluent staining from baseline to day 57. Study subjects were carefully monitored for any adverse events.
as §1, §2, §3

[4] = VISTA-1, 1.55 μg/mL SkQ1, ITT subgroup Schirmer's ≥7 mm at baseline
[5] = VISTA-1, 1.55 μg/mL SkQ1, ITT subgroup Schirmer's ≥7 mm at baseline, of 46 subjects
[6] = 1.55 μg/mL SkQ1, ITT subgroup Schirmer's ≥7 mm at baseline
[7] = 1.55 μg/mL SkQ1, ITT subgroup Schirmer's ≥7 mm at baseline, of 78 subjects

Substance: SkQ1
- BCVA-logMAR change from baseline, LS Mean (SE) ([1]; 1.55 μg/mL SkQ1, ITT subgroup Schirmer's <7 mm): −0.0 (0.0137)
- BCVA-logMAR change from baseline, LS Mean (SE) ([1]; 1.55 μg/mL SkQ1, Visit 3, ITT subgroup Schirmer's ≥7 mm): −0.012 (0.0143)
- Change from baseline in central corneal fluorescein staining, ANCOVA model LS Mean (SE) ([2]; 0.155 μg/mL SkQ1): −0.31 (0.059)
- Difference in Means, Active - Placebo (two-sample t-test), central corneal fluorescein staining change ([2]; 0.155 μg/mL SkQ1): −0.02
- Change from baseline in central corneal fluorescein staining, ANCOVA model LS Mean (SE) ([2]; 0.155 μg/mL SkQ1, listed as SkQ): −0.31
- Change from baseline in central corneal fluorescein staining, Mean (SD) ([2]; 0.155 μg/mL SkQ1 ophthalmic solution BID): −0.30 (0.816)
- Change from baseline in central corneal fluorescein staining, ANCOVA model LS Mean (SE) ([2]; 1.55 μg/mL SkQ1): −0.20 (0.058)
- Difference in Means, Active - Placebo (two-sample t-test), central corneal fluorescein staining change ([2]; 1.55 μg/mL SkQ1): 0.08
- Change from baseline in central corneal fluorescein staining, ANCOVA model LS Mean (SE) ([2]; 1.55 μg/mL SkQ1, listed as SkQ6): −0.20
- Change from baseline in central corneal fluorescein staining, Mean (SD) ([2]; 1.55 μg/mL SkQ1 ophthalmic solution BID): −0.20 (0.763)
- Treatment effect on the central fluorescein staining sign of dry eye vs placebo ([2]; 0.155 and 1.55 μg/mL SkQ1 ophthalmic solution, all treatment groups): no statistically significant beneficial treatment effect
- Proportion of Subjects with Fluorescein Staining in the Central Region (>0 Score) [2, 4]: (84.8%)
- Proportion of Subjects without Fluorescein Staining in the Central Region (=0 Score) [2, 4]: (15.2%)
- Number of Subjects with Fluorescein Staining in the Central Region (>0 Score) [2, 5]: 39
- Number of Subjects without Fluorescein Staining in the Central Region (=0 Score) [2, 5]: 7
- Change from baseline in central fluorescein staining, LS Mean ([2]; VISTA-1, 1.55 μg/mL SkQ1, unanesthetized Schirmer's test <7 mm at baseline): −0.20
- Change from baseline in central fluorescein staining, LS Mean ([2]; VISTA-1, 1.55 μg/mL SkQ1, unanesthetized Schirmer's test ≥7 mm at baseline): −0.46
- Odds Ratio, Logistic Regression, clearing of central corneal fluorescein staining, 1.55 μg/mL SkQ1 - Placebo ([2]; VISTA-1, ITT subgroup Schirmer's ≥7 mm at baseline): 7.57
- dose at which mild ocular toxicity is observed (eye; in vivo): 45 μg/eye/day
- no observed adverse effect level (NOAEL) for ocular toxicity (eye; per eye per day): 4.5 μg/eye/day
- Proportion of Subjects with Fluorescein Staining in the Central Region (>0 Score) [3, 6]: (83.3%)
- Proportion of Subjects without Fluorescein Staining in the Central Region (=0 Score) [3, 6]: (16.7%)
- Number of Subjects with Fluorescein Staining in the Central Region (>0 Score) [3, 7]: 65
- Number of Subjects without Fluorescein Staining in the Central Region (=0 Score) [3, 7]: 13
- Change from baseline in central fluorescein staining, LS Mean ([3]; unanesthetized Schirmer's test <7 mm at baseline): −0.156
- Change from baseline in central fluorescein staining, LS Mean ([3]; unanesthetized Schirmer's test ≥7 mm at baseline): −0.43
- Odds Ratio, Logistic Regression, clearing of central corneal fluorescein staining, 1.55 μg/mL SkQ1 - Placebo ([3]; ITT subgroup Schirmer's ≥7 mm at baseline): 6.73
